In ChEMBL document CHEMBL4265897, “Discovery of benzothiazole amides as potent antimycobacterial agents” (Bioorg Med Chem Lett, 2018):
≈ marks a conversion by molar mass, not a printed value. Calls of active or inactive are those of the source. No cut-off for these calls is given here.

Columns and labels:
RBCs = assay: Hemolytic activity in RBC (unknown origin) at 128 ug/ml; type: ADME, cell-based; settings: erythrocyte
[1] = tested on: Mycobacteroides abscessus; assay: Antimycobacterial activity against Mycobacterium abscessus 1 by CLSI method; type: functional
Cytochrome P450 2C8 = biological target: T1, Cytochrome P450 2C8 (Homo sapiens, UniProt P10632); assay: Inhibition of CYP2C8 (unknown origin); type: ADME
T1 sequence (P10632 whole entry): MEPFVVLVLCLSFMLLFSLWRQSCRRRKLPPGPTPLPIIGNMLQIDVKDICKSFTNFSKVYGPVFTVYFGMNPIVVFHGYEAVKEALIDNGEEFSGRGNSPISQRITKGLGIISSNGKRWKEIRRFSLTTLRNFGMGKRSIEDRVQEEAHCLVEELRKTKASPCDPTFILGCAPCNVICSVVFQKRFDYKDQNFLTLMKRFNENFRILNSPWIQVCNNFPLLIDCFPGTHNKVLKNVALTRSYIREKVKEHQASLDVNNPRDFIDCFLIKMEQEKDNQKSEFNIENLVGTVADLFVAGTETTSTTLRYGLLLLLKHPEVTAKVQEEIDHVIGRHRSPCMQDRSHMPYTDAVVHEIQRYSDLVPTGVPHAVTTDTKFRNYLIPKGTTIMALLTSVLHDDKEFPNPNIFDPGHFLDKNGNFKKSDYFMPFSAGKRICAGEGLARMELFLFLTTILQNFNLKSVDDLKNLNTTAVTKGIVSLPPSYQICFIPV

[2] = Oral bioavailability in mouse at 100 mg/kg; type: ADME, organism-based; settings: in vivo
[3] = Solubility of the compound; type: physicochemical
Cytochrome P450 3A4 [4] = biological target: T2, Cytochrome P450 3A4 (Homo sapiens, UniProt P08684); assay: Inhibition of CYP3A4 (unknown origin) using testosterone as substrate; type: ADME
T2 sequence (P08684 whole entry): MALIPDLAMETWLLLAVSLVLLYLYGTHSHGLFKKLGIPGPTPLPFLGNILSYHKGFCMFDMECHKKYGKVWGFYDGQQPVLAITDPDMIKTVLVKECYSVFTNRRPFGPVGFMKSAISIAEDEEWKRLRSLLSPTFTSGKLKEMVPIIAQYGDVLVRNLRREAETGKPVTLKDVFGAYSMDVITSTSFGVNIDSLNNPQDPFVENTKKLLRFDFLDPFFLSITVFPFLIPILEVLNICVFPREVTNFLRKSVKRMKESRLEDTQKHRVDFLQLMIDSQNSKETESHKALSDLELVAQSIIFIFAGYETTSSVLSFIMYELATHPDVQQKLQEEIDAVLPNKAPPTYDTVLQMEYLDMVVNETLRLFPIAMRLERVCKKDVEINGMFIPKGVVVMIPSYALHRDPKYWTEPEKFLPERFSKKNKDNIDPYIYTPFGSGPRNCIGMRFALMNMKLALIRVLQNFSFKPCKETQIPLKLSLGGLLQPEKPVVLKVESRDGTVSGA

Mycobacteroides chelonae = assay: Antimycobacterial activity against Mycobacterium chelonae 93 by CLSI method; type: functional
[5] = tested on: Mycobacterium tuberculosis; assay: Antimycobacterial activity against Mycobacterium tuberculosis H37Rv MC2 6206 by CLSI method; type: functional
[6] = tested on: Mycolicibacterium fortuitum; assay: Antimycobacterial activity against Mycobacterium fortuitum 41 by CLSI method; type: functional
[7] = tested on: Mycolicibacterium peregrinum; assay: Antimycobacterial activity against Mycobacterium peregrinum ATCC 700686 by CLSI method; type: functional
[8] = tested on: Mycobacteroides abscessus; assay: Antimycobacterial activity against Mycobacterium massiliense 119 by CLSI method; type: functional, Mycobacterium abscessus subsp. massiliense
Mycobacterium avium = assay: Antimycobacterial activity against Mycobacterium avium 101 by CLSI method; type: functional
Cytochrome P450 2D6 = Cytochrome P450 2D6 (Homo sapiens, UniProt P10635); assay: Inhibition of CYP2D6 (unknown origin); type: ADME
Chain of Cytochrome P450 2D6 (P10635 whole entry): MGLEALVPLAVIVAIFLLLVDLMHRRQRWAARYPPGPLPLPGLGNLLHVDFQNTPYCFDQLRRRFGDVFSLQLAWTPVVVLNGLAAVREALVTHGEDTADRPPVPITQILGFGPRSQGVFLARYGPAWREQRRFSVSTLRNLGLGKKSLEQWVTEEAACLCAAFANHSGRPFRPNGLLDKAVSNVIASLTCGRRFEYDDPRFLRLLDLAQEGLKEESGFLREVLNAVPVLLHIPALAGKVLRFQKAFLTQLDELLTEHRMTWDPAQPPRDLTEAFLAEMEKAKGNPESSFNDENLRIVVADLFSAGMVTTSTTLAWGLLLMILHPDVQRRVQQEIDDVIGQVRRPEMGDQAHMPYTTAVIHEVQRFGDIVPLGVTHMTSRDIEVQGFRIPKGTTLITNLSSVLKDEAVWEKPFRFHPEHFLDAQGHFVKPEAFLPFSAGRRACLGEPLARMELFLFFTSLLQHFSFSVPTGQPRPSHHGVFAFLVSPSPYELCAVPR

[9] = tested on: Mycobacteroides abscessus; assay: Antimycobacterial activity against Mycobacterium abscessus 79 by CLSI method; type: functional
[10] = tested on: Mycobacterium intracellulare; assay: Antimycobacterial activity against Mycobacterium intracellulare 1956 by CLSI method; type: functional
[11] = Protein binding in human serum; type: ADME, cell-free; settings: read-out: PB
Cytochrome P450 2C9 = Cytochrome P450 2C9 (Homo sapiens, UniProt P11712); assay: Inhibition of CYP2C9 (unknown origin); type: ADME
Chain of Cytochrome P450 2C9 (P11712 whole entry): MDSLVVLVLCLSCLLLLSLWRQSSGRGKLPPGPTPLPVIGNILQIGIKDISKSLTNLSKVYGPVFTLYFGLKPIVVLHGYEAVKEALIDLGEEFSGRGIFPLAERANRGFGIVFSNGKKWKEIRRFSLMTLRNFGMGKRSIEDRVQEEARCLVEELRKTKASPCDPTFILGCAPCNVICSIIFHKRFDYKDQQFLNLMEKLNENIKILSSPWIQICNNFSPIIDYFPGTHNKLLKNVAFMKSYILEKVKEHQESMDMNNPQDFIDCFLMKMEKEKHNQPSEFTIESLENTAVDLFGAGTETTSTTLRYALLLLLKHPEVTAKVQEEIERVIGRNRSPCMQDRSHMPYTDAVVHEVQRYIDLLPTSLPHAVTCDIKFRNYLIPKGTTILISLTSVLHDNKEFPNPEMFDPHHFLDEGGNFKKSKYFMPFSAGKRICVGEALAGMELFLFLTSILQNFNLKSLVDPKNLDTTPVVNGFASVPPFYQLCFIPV

Cytochrome P450 2B6 = biological target: T3, Cytochrome P450 2B6 (Homo sapiens, UniProt P20813); assay: Inhibition of CYP2B6 (unknown origin); type: ADME
T3 sequence (P20813 whole entry): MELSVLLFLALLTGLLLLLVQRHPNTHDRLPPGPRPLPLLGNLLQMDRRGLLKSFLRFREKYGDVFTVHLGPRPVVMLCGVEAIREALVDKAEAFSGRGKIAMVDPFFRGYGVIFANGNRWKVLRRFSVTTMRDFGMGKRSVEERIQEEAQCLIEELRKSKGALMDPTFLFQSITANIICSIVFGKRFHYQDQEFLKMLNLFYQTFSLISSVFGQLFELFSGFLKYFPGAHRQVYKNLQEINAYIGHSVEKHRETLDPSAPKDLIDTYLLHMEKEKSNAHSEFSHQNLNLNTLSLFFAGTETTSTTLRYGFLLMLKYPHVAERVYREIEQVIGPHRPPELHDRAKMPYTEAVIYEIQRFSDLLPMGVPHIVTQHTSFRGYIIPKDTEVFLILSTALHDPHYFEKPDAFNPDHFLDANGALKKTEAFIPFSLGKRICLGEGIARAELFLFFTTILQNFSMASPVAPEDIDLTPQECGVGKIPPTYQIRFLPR

[12] = Clearance in mouse plasma at 10 mg/kg, iv; type: ADME, organism-based
Cytochrome P450 3A4 [13] = biological target: T2, Cytochrome P450 3A4; assay: Inhibition of CYP3A4 (unknown origin) using midazolam as substrate; type: ADME
[14] = tested on: Mycobacteroides abscessus; assay: Antimycobacterial activity against Mycobacterium abscessus 103 by CLSI method; type: functional
Cytochrome P450 2C19 = Cytochrome P450 2C19 (Homo sapiens, UniProt P33261); assay: Inhibition of CYP2C19 (unknown origin); type: ADME
Chain of Cytochrome P450 2C19 (P33261 whole entry): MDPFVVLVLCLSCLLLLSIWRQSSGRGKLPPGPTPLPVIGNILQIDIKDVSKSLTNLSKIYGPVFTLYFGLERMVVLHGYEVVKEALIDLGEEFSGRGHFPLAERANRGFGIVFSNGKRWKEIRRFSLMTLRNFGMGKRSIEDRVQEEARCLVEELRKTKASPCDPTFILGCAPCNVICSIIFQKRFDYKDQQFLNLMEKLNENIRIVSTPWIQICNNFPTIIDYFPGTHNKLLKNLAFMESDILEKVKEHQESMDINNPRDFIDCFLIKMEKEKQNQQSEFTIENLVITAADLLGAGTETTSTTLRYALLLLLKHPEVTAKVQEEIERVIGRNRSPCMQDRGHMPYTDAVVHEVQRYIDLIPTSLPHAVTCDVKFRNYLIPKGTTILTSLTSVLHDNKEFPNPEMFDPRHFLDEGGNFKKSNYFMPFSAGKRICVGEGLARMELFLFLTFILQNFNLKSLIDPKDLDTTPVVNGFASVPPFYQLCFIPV

[15] = tested on: Mycobacteroides abscessus; assay: Antimycobacterial activity against Mycobacterium abscessus 21 by CLSI method; type: functional
[16] = tested on: Mycobacteroides abscessus; assay: Antimycobacterial activity against Mycobacterium abscessus ATCC 19977 by CLSI method; type: functional
CYP3A4 = CYP3A4 (Homo sapiens, UniProt P08684); assay: Inhibition of CYP3A4 (unknown origin) at 10 uM; type: ADME
Chain of CYP3A4 (P08684 whole entry): as the sequence (P08684 whole entry) above

CYP2B6 = biological target: T4, CYP2B6 (Homo sapiens, UniProt P20813); assay: Inhibition of CYP2B6 (unknown origin) at 10 uM; type: ADME
T4 sequence (P20813 whole entry): T3 sequence (P20813 whole entry)

[17] = tested on: Mycobacteroides abscessus; assay: Bacteriostatic activity against Mycobacterium abscessus assessed as reduction in viable colony forming unit after 3 days by time-kill assay; type: functional, organism-based
[18] = tested on: Mycobacteroides abscessus; assay: Antimycobacterial activity against Mycobacterium abscessus assessed as reduction in viable colony forming unit after 5 days by time-kill assay relative to control; type: functional

Row | SMILES | MIC [1] [µg/mL] | MIC (Mycobacteroides chelonae) [µg/mL] | MIC [5] [µg/mL] | MIC [6] [µg/mL] | MIC [7] [µg/mL] | MIC [8] [µg/mL] | MIC (Mycobacterium avium) [µg/mL] | MIC [9] [µg/mL] | MIC [10] [µg/mL] | MIC [14] [µg/mL] | MIC [15] [µg/mL] | MIC [16] [µg/mL] | other results
1 | CC1CC(C(=O)Nc2nc3ccc(Br)cc3s2)CC(C)(C)C1 (centres undefined) | 1 (≈ 2.62 µM) | 0.5 (≈ 1.31 µM) | 2 (≈ 5.24 µM) | 0.5 (≈ 1.31 µM) | 0.12 (≈ 0.315 µM) | 0.5 (≈ 1.31 µM) | > 64 | 0.5 (≈ 1.31 µM) | > 64 | 0.25 (≈ 0.656 µM) | 0.5 (≈ 1.31 µM) |  | Activity (RBCs): Non-Toxic; IC50 (Cytochrome P450 2C8): > 20 µM; bioavailability [2]: 75%; solubility [3]: Insoluble; IC50 (Cytochrome P450 3A4 [4]): > 20 µM; IC50 (Cytochrome P450 2D6): 1.6 µM; fraction unbound [11]: < 0.01; IC50 (Cytochrome P450 2C9): > 20 µM; IC50 (Cytochrome P450 2B6): 12.8 µM; clearance [12]: 25 mL/min/kg; IC50 (Cytochrome P450 3A4 [13]): > 20 µM; IC50 (Cytochrome P450 2C19): 12.7 µM
2 | O=C(Nc1nc2ccc(C(F)(F)F)cc2s1)C1CCC2(CC1)CC2 | 8 (≈ 22.6 µM) | 4 (≈ 11.3 µM) | 32 (≈ 90.3 µM) | > 64 | > 64 | 8 (≈ 22.6 µM) | 64 (≈ 181 µM) | 16 (≈ 45.1 µM) | > 64 |  | 16 (≈ 45.1 µM) | 32 (≈ 90.3 µM) | 
3 | CC1CC(C(=O)Nc2nc3ccc(SC(F)(F)F)cc3s2)CC(C)(C)C1 (centres undefined) | 2 (≈ 4.97 µM) | 0.12 (≈ 0.298 µM) |  | > 64 | 8 (≈ 19.9 µM) | 0.25 (≈ 0.621 µM) | > 64 | 64 (≈ 159 µM) | > 64 | 0.5 (≈ 1.24 µM) | 0.5 (≈ 1.24 µM) | 16 (≈ 39.8 µM) | 
4 | COc1ccc2nc(NC(=O)C3CC(C)CC(C)(C)C3)sc2c1 (centres undefined) | 2 (≈ 6.02 µM) | 0.25 (≈ 0.752 µM) | 8 (≈ 24.1 µM) | 2 (≈ 6.02 µM) | 1 (≈ 3.01 µM) | 0.5 (≈ 1.5 µM) | 16 (≈ 48.1 µM) | 1 (≈ 3.01 µM) | 8 (≈ 24.1 µM) |  | 1 (≈ 3.01 µM) | 1 (≈ 3.01 µM) | 
5 | CC12CCCC(C(=O)Nc3nc4cc(Cl)cc(Cl)c4s3)(CCC1)C2 | 0.06 (≈ 0.157 µM) | 0.03 (≈ 0.0783 µM) | ≤ 0.12 | 0.06 (≈ 0.157 µM) | 0.03 (≈ 0.0783 µM) | 0.03 (≈ 0.0783 µM) | 2 (≈ 5.22 µM) | 0.03 (≈ 0.0783 µM) | 2 (≈ 5.22 µM) | 0.03 (≈ 0.0783 µM) | 0.03 (≈ 0.0783 µM) |  | inhibition at 10 µM (CYP3A4): > 50%; inhibition at 10 µM (CYP2B6): > 50%
6 | CC12CC3CC(C)(C1)CC(C(=O)Nc1nc4ccc(OC(F)(F)F)cc4s1)(C3)C2 | 0.25 (≈ 0.589 µM) | 0.25 (≈ 0.589 µM) | 1 (≈ 2.36 µM) | 0.25 (≈ 0.589 µM) | 0.12 (≈ 0.283 µM) | 0.25 (≈ 0.589 µM) | 2 (≈ 4.71 µM) | 0.25 (≈ 0.589 µM) | 1 (≈ 2.36 µM) | 0.25 (≈ 0.589 µM) | 0.25 (≈ 0.589 µM) | 0.25 (≈ 0.589 µM) | Activity [17]: Active; Activity [18]: 2 deltalog10CFU
7 | CC1CC(C(=O)Nc2nc3ccc(N(C)C)cc3s2)CC(C)(C)C1 (centres undefined) | > 64 | 2 (≈ 5.79 µM) |  | 8 (≈ 23.2 µM) | 2 (≈ 5.79 µM) | 4 (≈ 11.6 µM) | > 64 | 8 (≈ 23.2 µM) | > 64 | 64 (≈ 185 µM) | 16 (≈ 46.3 µM) | 32 (≈ 92.6 µM) | 
8 | CC1CC(C(=O)Nc2nc3cc(F)ccc3s2)CC(C)(C)C1 (centres undefined) | 2 (≈ 6.24 µM) | 2 (≈ 6.24 µM) |  | 2 (≈ 6.24 µM) | 4 (≈ 12.5 µM) | 2 (≈ 6.24 µM) | 16 (≈ 49.9 µM) | 2 (≈ 6.24 µM) | 16 (≈ 49.9 µM) |  | 0.5 (≈ 1.56 µM) | 1 (≈ 3.12 µM) | 
